Measured values reported in patent US5410018A, “Bombesin-related peptides” (Oregon Regional Primate Research Center, priority 1994, dated 1995).
Non-standard residues stand in square brackets, D forms with d. Residues, ends and D or L forms follow the SMILES beside them. No end group written: not given here. pGlu = O=C1CC[C@@H](C(=O)O)N1

What was measured:
human NMB receptor = target: T1, human NMB receptor (Homo sapiens, UniProt P28336); assay: Calcium uptake functional assay in xenopus oocytes expressing the human NMB receptor (aequorin luminometry); assay type: cell-based; settings: xenopus oocytes coinjected with NMB receptor RNA and aequorin
T1 construct: expressed in transfected cells; host or cells: Xenopus oocytes injected with NMB receptor RNA and aequorin
Protocol: (§1) The ability of BIM-26336 and BIM-26337 to activate both the GRP and NMB receptors were analyzed using a calcium uptake functional assay.
Xenopus oocytes, a frog egg naturally deprived of any receptors, were coinjected with both NMB receptor RNA and calcium photoprotein aequorin. The ability of SAP bombesins to induce change in intracellular calcium levels within the cells were measured luminometrically. See Spindel, et al., Recent Progress in Hormone Research 48:365 (1993); Corjay, et al., J. Biol. Chem. 266:18771 (1991); and Giladi et al., BioTechniques 10:744 (1991), all of which are hereby incorporated by reference.
(§2) The ability of bombesin, NMB, SAP bombesin-14, and SAP bombesin-10 to agonize the receptor was tested.

human GRP receptor = target: T2, human GRP receptor (Homo sapiens, UniProt P30550); assay: Calcium uptake functional assay in xenopus oocytes expressing the human GRP receptor (aequorin luminometry); assay type: cell-based; settings: xenopus oocytes coinjected with GRP receptor RNA and aequorin
T2 construct: expressed in transfected cells; host or cells: Xenopus oocytes injected with GRP receptor RNA and aequorin
Protocol: as §1
Xenopus oocytes were coinjected with both GRP receptor RNA and calcium photoprotein aequorin. The ability of SAP bombesins to induce change in intracellular calcium levels within the cells can be measured luminometrically.
as §2

GRP receptor = GRP receptor (Rattus norvegicus, UniProt P52500); assay: biochemical
Protocol: Membranes of the GRP receptor used in the binding assay were obtained by homogenizing cultured AR42J cells (Polytron, setting 6, 15 sec) in ice-cold 50 mM Tris-HC1 (Buffer A) and centrifuging twice as 39,000 x g (10 min), with an intermediate resuspension in fresh buffer. The final pellets were resuspended in the 50 mM Tris-HCl, containing 0.1 mg/ml bacitracin, and 0.1% BSA (Buffer B), and held on ice for the receptor binding assay. […] The experiment was performed with BIM-26336, […], GRP, and NMB as competing peptides.

NMB receptor = NMB receptor (Rattus norvegicus, UniProt P24053); assay: biochemical
Protocol: Membranes of the NMB receptor used in the binding assay were obtained by homogenizing rat olfactory bulb tissue (Polytron, setting 6, 15 sec) in ice-cold 50 mM Tris-HC1 (Buffer A) and centrifuging twice as 39,000 x g (10 min), with an intermediate resuspension in fresh buffer. The final pellets were resuspended in the 50 mM Tris-HCl, containing 0.1 mg/ml bacitracin, and 0.1% BSA (Buffer B), and held on ice for the receptor binding assay. For the assay, aliquots (0.4 ml) were incubated with 0.05 ml [^125 I] NMB (-2200 Ci/mmol, New England Nuclear) and Buffer B, with and without 0.05 ml of unlabeled competing peptides. The experiment was performed with BIM-26336, […], GRP, and NMB as competing peptides.
After a 30 min incubation (4° C.), the bound [^125 I]NMB was separated from the free by rapid filtration through GF/B filters which had been previously soaked in 0.3% polyethyleneimine. The filters were then washed three times with 5 ml aliquots of ice-cold Buffer A. Specific binding was defined as the total [125I] NMB bound minus that bound in the presence of 1 μM unlabeled NMB.

[1] = system: Swiss 3T3/1R mouse embryo fibroblast cells; assay: Thymidine uptake assay in Swiss 3T3 cells; assay type: cell-based; settings: 24 h
Protocol: Swiss 3T3/1R mouse embryo fibroblast cells were plated in 24 well tissue culture plates at a density of 2×10^4 cells in 1 ml of Dublbecco's modified eagles medium (DMEM) supplemented with 40 mM glutamine (Gln) in 10% fetal bovine serum. Cells were incubated 3 or 4 days at […] in a humidified atmosphere at 95% air/5% CO2 before replacing the growth medium with DMEM/Gln and 250 μg/ml gentamicin. On the following day, 1 μCi thymidine was added to all wells, and activity was addressed by addition of test peptides alone or in the presence on 3 nM bombesin, respectively. After 24 h, the cells were rinsed with icecold isotonic saline and treated with ice-cold 5% trichloroacetic acid for 30 min. Cells were then rinsed with 95% ethanol and incubated with 0.1 N NaOH overnight at room temperature. One ml aliquots of neutralized samples were counted in a Packard Tri-Carb liquid scintillation analyzer. Test sample activity was measured in 2 independent experiments performed in quadruplicate.
This experiment was performed using 5 test samples: (1) bombesin (3 nM); (2) BIM-26336; (3) BIM-26337; (4) bombesin (3 nM) and BIM-26336; and (5) bombesin (3 nM)+BIM-26337. The results of these experiments are depicted on FIG. 6, wherein the x-axis depicts concentration of the respective SAP bombesin and the y-axis depicts disintegration per minute.

Sequence of GRP receptor (P52500 whole entry): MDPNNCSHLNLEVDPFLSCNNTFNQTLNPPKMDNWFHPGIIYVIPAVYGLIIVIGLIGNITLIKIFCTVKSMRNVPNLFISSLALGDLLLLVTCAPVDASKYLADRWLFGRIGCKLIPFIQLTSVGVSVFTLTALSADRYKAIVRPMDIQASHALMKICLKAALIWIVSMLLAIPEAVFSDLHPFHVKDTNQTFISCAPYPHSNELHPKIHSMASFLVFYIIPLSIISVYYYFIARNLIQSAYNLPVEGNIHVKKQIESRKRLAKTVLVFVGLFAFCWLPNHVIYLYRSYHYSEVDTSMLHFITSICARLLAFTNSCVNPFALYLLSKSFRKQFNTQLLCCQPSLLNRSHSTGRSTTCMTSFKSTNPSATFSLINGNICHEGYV
Sequence of NMB receptor (P24053 whole entry): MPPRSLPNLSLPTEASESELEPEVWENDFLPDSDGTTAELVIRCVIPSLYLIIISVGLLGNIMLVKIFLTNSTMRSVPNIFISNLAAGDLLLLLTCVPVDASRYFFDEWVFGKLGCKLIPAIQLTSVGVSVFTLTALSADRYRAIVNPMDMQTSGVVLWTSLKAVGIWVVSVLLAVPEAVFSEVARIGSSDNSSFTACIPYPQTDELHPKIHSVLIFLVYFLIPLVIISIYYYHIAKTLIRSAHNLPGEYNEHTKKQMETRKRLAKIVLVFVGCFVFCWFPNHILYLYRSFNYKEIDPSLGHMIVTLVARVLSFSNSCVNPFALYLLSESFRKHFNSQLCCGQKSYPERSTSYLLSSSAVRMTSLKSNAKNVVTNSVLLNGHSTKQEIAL
T2 sequence (P30550 whole entry): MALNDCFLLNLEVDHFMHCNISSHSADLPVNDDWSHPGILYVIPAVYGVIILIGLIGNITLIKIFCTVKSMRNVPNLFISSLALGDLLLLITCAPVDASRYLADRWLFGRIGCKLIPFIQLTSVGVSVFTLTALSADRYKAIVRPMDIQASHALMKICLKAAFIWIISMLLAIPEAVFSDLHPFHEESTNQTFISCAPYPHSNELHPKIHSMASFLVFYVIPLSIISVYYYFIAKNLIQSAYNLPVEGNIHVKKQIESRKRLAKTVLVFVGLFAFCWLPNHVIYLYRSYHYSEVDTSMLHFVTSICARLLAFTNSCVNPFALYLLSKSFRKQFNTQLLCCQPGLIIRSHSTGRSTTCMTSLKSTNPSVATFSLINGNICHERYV
T1 sequence (P28336 whole entry): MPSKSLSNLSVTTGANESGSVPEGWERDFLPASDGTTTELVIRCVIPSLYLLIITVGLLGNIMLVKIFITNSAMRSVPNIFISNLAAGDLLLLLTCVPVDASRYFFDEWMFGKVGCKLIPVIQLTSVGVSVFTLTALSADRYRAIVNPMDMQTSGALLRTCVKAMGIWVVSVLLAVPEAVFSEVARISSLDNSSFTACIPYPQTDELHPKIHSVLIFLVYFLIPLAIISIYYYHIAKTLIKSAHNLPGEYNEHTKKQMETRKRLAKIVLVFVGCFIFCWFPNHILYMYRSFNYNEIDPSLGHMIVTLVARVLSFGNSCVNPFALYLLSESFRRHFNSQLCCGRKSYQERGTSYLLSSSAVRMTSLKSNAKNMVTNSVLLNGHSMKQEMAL

Row | Molecule | potency at the NMB receptor (intracellular calcium, relative to NMB) (human NMB receptor) | potency at the GRP receptor (intracellular calcium) (human GRP receptor) | Ki (GRP receptor) [nM] | binding selectivity between GRP and NMB receptors (GRP receptor; comparison of Ki at NMB and GRP receptors) | Ki (NMB receptor) [nM] | thymidine uptake, peptide with bombesin ([1]; in the presence of 3 nM bombesin) | thymidine uptake, peptide alone ([1]; test peptide alone)
1 | CSCC[C@H](NC(=O)[C@H](Cc1ccccc1)NC(=O)[C@H](Cc1c[nH]cn1)NC(=O)CNC(=O)[C@H](CCCNC(=N)N)NC(=O)[C@H](C)NC(=O)[C@H](Cc1c[nH]c2ccccc12)NC(=O)[C@H](CCC(N)=O)NC(=O)[C@H](CC(N)=O)NC(=O)CNC(=O)[C@H](CC(C)C)NC(=O)[C@H](CO)NC(=O)[C@H](CCC(N)=O)NC(=O)[C@@H]1CCC(=O)N1)C(N)=O [BIM-26337, H-pGlu-Gln-Ser-Leu-Gly-Asn-Gln-Trp-Ala-Arg-Gly-His-Phe-Met-NH2] ([pGlu]QSLGNQWARGHFM-NH2) | approximately two log units less than that of NMB | significantly greater potency than SAP bombesin-10 | 6.4 | more selective binding of GRP than NMB receptors | 610 | substantially enhanced | induce thymidine uptake
2 | GNQWARGHFM-NH2 [BIM-26336, Gly-Asn-Gln-Trp-Ala-Arg-Gly-His-Phe-Met-NH2] | – | – | 6.6 | – | 15.1 | – | –
